Patent publication US20250084063A1 (Incyte Corporation, priority 2023, published 2025)

Assays:
Format in all cases: cell-based
MRGPRX2 [1] = target: T1, MRGPRX2 (Homo sapiens, UniProt Q96LB1); assay: MRGPRX2 FLIPR calcium mobilization assay; design: host or cells: CHO-K1; conditions: CHO-K1 cells stably expressing human MRGPRX2; Ca2+ release, agonist Cortistatin-14 at EC80
T1 sequence (Q96LB1 1-330): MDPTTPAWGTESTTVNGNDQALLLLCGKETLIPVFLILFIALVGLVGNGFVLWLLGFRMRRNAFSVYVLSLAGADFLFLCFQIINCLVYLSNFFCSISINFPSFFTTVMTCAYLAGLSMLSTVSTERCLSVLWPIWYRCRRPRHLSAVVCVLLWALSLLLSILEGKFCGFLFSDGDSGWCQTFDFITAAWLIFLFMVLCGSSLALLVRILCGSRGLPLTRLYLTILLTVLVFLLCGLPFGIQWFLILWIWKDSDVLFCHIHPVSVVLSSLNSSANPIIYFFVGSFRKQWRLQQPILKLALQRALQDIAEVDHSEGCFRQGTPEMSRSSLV
Outline: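 CHO-K1 cells stably expressing human MRGPRX2, loaded with Calcium 6 dye, pre-incubated 30 min at room temperature with test compound in HBSS/20 mM HEPES pH 7.4. Then challenged with Cortistatin-14 at EC80; baseline-adjusted peak fluorescence over 110 s fitted to a Hill equation for IC50.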

MRGPRX2 [2] = target: T1, MRGPRX2; assay: MRGPRX2 IP1 HTRF assay; design: host or cells: CHO-K1; conditions: CHO-K1 cells stably expressing human MRGPRX2; IP1 accumulation, agonist Cortistatin 14 1 μM
MRGPRX2 [3] = target: T1, MRGPRX2; assay: MRGPRX2 β-Arrestin assay; design: host or cells: PathHunter CHO-K1; conditions: PathHunter CHO-K1 MRGPRX2 β-Arrestin cell line; agonist Cortistatin 14 0.25 μM
Outline: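 PathHunter CHO-K1 cells expressing ProLink-tagged MRGPRX2 and enzyme-acceptor-tagged β-arrestin were preincubated with serially diluted compound 1 h at 37 °C, then stimulated with 0.25 μM cortistatin 14 (final) for 90 min. β-arrestin recruitment was read by luminescence; IC50 from 3- or 4-parameter Hill fits normalised to DMSO and reference antagonist controls.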

Measured: IC50

O=C(NC1CC(F)(F)C1)N1CC(CNc2cc(C(F)(F)F)nc3ccc(Cl)cc23)(c2ccc(F)cn2)C1 [Example 19, 3-(((6-Chloro-2-(trifluoromethyl)quinolin-4-yl)amino)methyl)-N-(3,3-difluorocyclobutyl)-3-(5-fluoropyridin-2-yl)azetidine-1-carboxamide]
0.0001 to 0.1 µM: all assays above

NC(=O)N1CCC(CNc2cc(C(F)(F)F)nc3ccc(Cl)cc23)(c2ccc(F)cn2)C1 (stereo not drawn) [Example 20, 3-(((6-Chloro-2-(trifluoromethyl)quinolin-4-yl)amino)methyl)-3-(5-fluoropyridin-2-yl) pyrrolidine-1-carboxamide]
0.0001 to 0.1 µM: all assays above

CC(C)NC(=O)N1CC(CNc2cc(C(F)(F)F)nc3ccc(Cl)cc23)(n2cc(F)cn2)C1 [Example 21, 3-(((6-Chloro-2-(trifluoromethyl)quinolin-4-yl)amino)methyl)-3-(4-fluoro-1H-pyrazol-1-yl)-N-isopropylazetidine-1-carboxamide]
0.0001 to 0.1 µM: all assays above

O=C(NC1CC(F)(F)C1)N1CC(CNc2cc(C(F)(F)F)nc3ccc(Cl)cc23)(n2cc(F)cn2)C1 [Example 22, 3-(((6-Chloro-2-(trifluoromethyl)quinolin-4-yl)amino)methyl)-N-(3,3-difluorocyclobutyl)-3-(4-fluoro-1H-pyrazol-1-yl)azetidine-1-carboxamide]
0.0001 to 0.1 µM: all assays above

NS(=O)(=O)N1CC(CNc2cc(C(F)(F)F)nc3ccc(F)cc23)(c2ccc(F)cc2)C1 [Example 23, 3-(((6-Fluoro-2-(trifluoromethyl)quinolin-4-yl)amino)methyl)-3-(4-fluorophenyl)azetidine-1-sulfonamide]
0.0001 to 0.1 µM: all assays above

NS(=O)(=O)N1CC(CNc2cc(C(F)(F)F)nc3ccc(Cl)cc23)(n2cc(F)cn2)C1 [Example 24, 3-(((6-Chloro-2-(trifluoromethyl)quinolin-4-yl)amino)methyl)-3-(4-fluoro-1H-pyrazol-1-yl)azetidine-1-sulfonamide]
0.0001 to 0.1 µM: all assays above

NC(=O)N1CC(CNc2cc(C(F)(F)F)nc3ccc(F)cc23)(c2ccc(F)cc2)C1 [Example 25, 3-(((6-Fluoro-2-(trifluoromethyl)quinolin-4-yl)amino)methyl)-3-(4-fluorophenyl)azetidine-1-carboxamide]
0.0001 to 0.1 µM: all assays above

[2H]C([2H])([2H])NC(=O)N1CC(CNc2cc(C(F)(F)F)nc3ccc(Cl)cc23)(n2cc(F)cn2)C1 [Example 26, 3-(((6-Chloro-2-(trifluoromethyl)quinolin-4-yl)amino)methyl)-3-(4-fluoro-1H-pyrazol-1-yl)-N-(methyl-d3)azetidine-1-carboxamide]
0.0001 to 0.1 µM: all assays above

O=C(NC1CC1)N1CC(CNc2cc(C(F)(F)F)nc3ccc(Cl)cc23)(n2cc(F)cn2)C1 [Example 27, 3-(((6-Chloro-2-(trifluoromethyl)quinolin-4-yl)amino)methyl)-N-cyclopropyl-3-(4-fluoro-1H-pyrazol-1-yl)azetidine-1-carboxamide]
0.0001 to 0.1 µM: all assays above

NC(=O)N1CC(CNc2cc(C(F)(F)F)nc3ccc(Cl)cc23)(n2cc(F)cn2)C1 [Example 28, 3-(((6-Chloro-2-(trifluoromethyl)quinolin-4-yl)amino)methyl)-3-(4-fluoro-1H-pyrazol-1-yl)azetidine-1-carboxamide]
0.0001 to 0.1 µM: all assays above

NS(=O)(=O)N1CC(CNc2cc(C(F)(F)F)nc3ccc(Cl)cc23)(c2ccc(Cl)cn2)C1 [Example 29, 3-(((6-Chloro-2-(trifluoromethyl)quinolin-4-yl)amino)methyl)-3-(5-chloropyridin-2-yl)azetidine-1-sulfonamide]
0.0001 to 0.1 µM: all assays above

[2H]C([2H])([2H])NC(=O)N1CC(CNc2cc(C(F)(F)F)nc3ccc(Cl)cc23)(n2cc(Cl)cn2)C1 [Example 30, 3-(4-Chloro-1H-pyrazol-1-yl)-3-(((6-chloro-2-(trifluoromethyl)quinolin-4-yl)amino)methyl)-N-(methyl-d3)azetidine-1-carboxamide]
0.0001 to 0.1 µM: all assays above

NS(=O)(=O)N1CC(CNc2cc(C(F)(F)F)nc3ccc(Cl)cc23)(c2cccc(F)c2)C1 [Example 31, 3-(((6-Chloro-2-(trifluoromethyl)quinolin-4-yl)amino)methyl)-3-(3-fluorophenyl)azetidine-1-sulfonamide]
0.0001 to 0.1 µM: all assays above

NS(=O)(=O)N1CC(CNc2cc(C(F)(F)F)nc3ccc(Cl)cc23)(c2ccc(F)cc2)C1 [Example 32, 3-(((6-Chloro-2-(trifluoromethyl)quinolin-4-yl)amino)methyl)-3-(4-fluorophenyl)azetidine-1-sulfonamide]
0.0001 to 0.1 µM: all assays above

NC(=O)N1CC(CNc2cc(C(F)(F)F)nc3ccc(Cl)cc23)(n2cc(Cl)cn2)C1 [Example 37, 3-(4-Chloro-1H-pyrazol-1-yl)-3-(((6-chloro-2-(trifluoromethyl)quinolin-4-yl)amino)methyl)azetidine-1-carboxamide]
0.0001 to 0.1 µM: all assays above

NS(=O)(=O)N1CC(CNc2cc(C(F)(F)F)nc3ccc(Cl)cc23)(c2ccccc2)C1 [Example 38, 3-(((6-Chloro-2-(trifluoromethyl)quinolin-4-yl)amino)methyl)-3-phenylazetidine-1-sulfonamide]
0.0001 to 0.1 µM: all assays above

NC(=O)N1CC(CNc2cc(C(F)(F)F)nc3ccc(Cl)cc23)(n2cc(Br)cn2)C1 [Example 41, 3-(4-Bromo-1H-pyrazol-1-yl)-3-(((6-chloro-2-(trifluoromethyl)quinolin-4-yl)amino)methyl)azetidine-1-carboxamide]
0.0001 to 0.1 µM: all assays above

NS(=O)(=O)N1CC(CNc2cc(C(F)(F)F)nc3ccc(Cl)cc23)(c2ncccc2F)C1 [Example 43, 3-(((6-Chloro-2-(trifluoromethyl)quinolin-4-yl)amino)methyl)-3-(3-fluoropyridin-2-yl)azetidine-1-sulfonamide]
0.0001 to 0.1 µM: all assays above

CNC(=O)N1CC(CNc2cc(C(F)(F)F)nc3ccc(Cl)cc23)(n2cc(F)cn2)C1 [Example 44, 3-(((6-Chloro-2-(trifluoromethyl)quinolin-4-yl)amino)methyl)-3-(4-fluoro-1H-pyrazol-1-yl)-N-methylazetidine-1-carboxamide]
0.0001 to 0.1 µM: all assays above

O=C1CCC(CNc2cc(C(F)(F)F)nc3ccc(Cl)cc23)(c2ccccc2)N1 (stereo not drawn) [Example 45, 5-(((6-Chloro-2-(trifluoromethyl)quinolin-4-yl)amino)methyl)-5-phenylpyrrolidin-2-one]
0.0001 to 0.1 µM: all assays above

NS(=O)(=O)N1CC(CNc2cc(C(F)(F)F)nc3ccc(Cl)cc23)(c2ccc(F)cn2)C1 [Example 46, 3-(((6-Chloro-2-(trifluoromethyl)quinolin-4-yl)amino)methyl)-3-(5-fluoropyridin-2-yl)azetidine-1-sulfonamide]
0.0001 to 0.1 µM: all assays above

NC(=O)N1CC(CNc2cc(C(F)(F)F)nc3ccc(Cl)cc23)(c2ccc(F)cn2)C1 [Example 47, 3-(((6-Chloro-2-(trifluoromethyl)quinolin-4-yl)amino)methyl)-3-(5-fluoropyridin-2-yl)azetidine-1-carboxamide]
0.0001 to 0.1 µM: all assays above
